Test results from paper PMC12260939, “Radiosynthesis and Evaluation of ^11C‑Labeled Imidazolyl Pyrimidine Derivatives for Positron Emission Tomography Imaging of Glycogen Synthase Kinase‑3” (ACS Pharmacology & Translational Science, 2025).
pIC50, pKd, pKi: −log10 of the molar value. ≈ marks a conversion by molar mass, not a printed value.

How the values were obtained:
P-glycoprotein (P-gp) = experiment: P-gp inhibition PET study (tariquidar pretreatment) in NHP; assay type: in vivo, cynomolgus monkeys
Source text: (§1) Then, we sought to assess the in vivo PET imaging performance characteristics of [^11C]13a–e in NHPs, and the results are presented in Figure . […] One potential contributor is metabolic instability of those tracers may reduce the amount of intact tracers to cross the BBB. Another important consideration is efflux by ATP-binding cassette (ABC) transporters, such as P-glycoprotein (P-gp) that is highly expressed at the BBB and can actively pump substrates out of the CNS. To investigate whether 13a–e are P-gp efflux substrates, a P-gp inhibition study was conducted. […] To enhance brain uptake in future analogs, various medicinal chemistry strategies could be employed, such as hydrogen bond donor/acceptor optimization, fine-tuning lipophilicity, steric shielding of efflux motifs, and bioisosteric replacements. A potential limitation of this study is the lack of blood sampling during the PET scans, which precluded assessment of [^11C]13e plasma concentrations following tariquidar pretreatment. […]
(§2) PET experiments were conducted on anesthetized healthy cynomolgus monkeys, following approval from the Stockholm Animal Research Ethical Committee (Dnr. 4820/06–600). […] The monkeys’ heads were stabilized with a fixation device, and body temperature was regulated with a Bair Hugger model 505 (Arizant Healthcare, MN, USA) and continuously monitored using an esophageal thermometer. […]

hERG channel = hERG channel (Homo sapiens, UniProt Q12809); experiment: hERG channel inhibition
Chain of hERG channel (Q12809 whole entry): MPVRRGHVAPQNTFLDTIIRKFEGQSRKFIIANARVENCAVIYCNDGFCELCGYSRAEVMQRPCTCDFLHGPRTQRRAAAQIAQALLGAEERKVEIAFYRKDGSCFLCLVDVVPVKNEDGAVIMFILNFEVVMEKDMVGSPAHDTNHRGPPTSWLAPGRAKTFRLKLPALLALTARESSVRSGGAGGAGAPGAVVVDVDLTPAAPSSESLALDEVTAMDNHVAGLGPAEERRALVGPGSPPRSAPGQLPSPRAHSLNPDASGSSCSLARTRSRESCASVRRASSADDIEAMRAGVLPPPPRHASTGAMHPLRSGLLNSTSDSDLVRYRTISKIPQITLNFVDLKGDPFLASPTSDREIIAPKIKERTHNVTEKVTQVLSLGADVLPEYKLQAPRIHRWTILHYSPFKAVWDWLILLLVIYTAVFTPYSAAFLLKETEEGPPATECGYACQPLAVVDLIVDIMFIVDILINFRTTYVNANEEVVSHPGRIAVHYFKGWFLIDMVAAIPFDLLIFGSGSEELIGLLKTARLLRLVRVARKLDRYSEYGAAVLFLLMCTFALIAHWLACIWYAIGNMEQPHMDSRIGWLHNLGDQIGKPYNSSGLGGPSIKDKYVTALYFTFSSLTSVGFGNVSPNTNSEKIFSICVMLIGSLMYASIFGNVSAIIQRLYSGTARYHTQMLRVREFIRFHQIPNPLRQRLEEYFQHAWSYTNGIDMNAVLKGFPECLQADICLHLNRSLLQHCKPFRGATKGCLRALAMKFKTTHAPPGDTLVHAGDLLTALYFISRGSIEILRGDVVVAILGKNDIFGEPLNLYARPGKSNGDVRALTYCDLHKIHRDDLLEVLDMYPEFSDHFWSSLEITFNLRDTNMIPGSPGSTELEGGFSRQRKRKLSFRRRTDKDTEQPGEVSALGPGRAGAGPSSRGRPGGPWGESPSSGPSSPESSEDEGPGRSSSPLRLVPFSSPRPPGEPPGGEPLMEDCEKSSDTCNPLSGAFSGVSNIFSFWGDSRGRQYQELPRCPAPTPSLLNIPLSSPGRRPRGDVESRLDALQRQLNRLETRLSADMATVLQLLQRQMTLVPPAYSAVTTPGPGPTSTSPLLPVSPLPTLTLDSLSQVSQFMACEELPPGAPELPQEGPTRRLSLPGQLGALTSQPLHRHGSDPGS

[1] = Apparent permeability (Papp A-B) and efflux ratio; assay type: in vitro ADME
Protocol: (§3) Multiparameter optimization (MPO) and brain/plasma concentration at steady-state (logBB) are widely used to predict BBB permeability. […] A detailed ADME/PK (absorption, distribution, metabolism, excretion and pharmacokinetics) profiling was conducted, and the results are listed in Table . […] These values meet the standards that BBB permeability is considered high if Papp A–B is ≥ 3.0 × 10^–6 cm/s and the efflux ratio is <3.0.

[2] = Unbound fraction in brain (fu brain); assay type: in vitro ADME
Protocol: as §3

GSK-3 [3] = experiment: NHP PET imaging of brain uptake; assay type: in vivo, cynomolgus monkeys; conditions: i.v. bolus, baseline
Source text: as §1, §2

[4] = Intrinsic clearance (CLint); assay type: in vitro ADME; conditions: cells (cell type not named); read-out: median CLint
Protein binding (% free) = assay type: in vitro ADME; conditions: read-out: mean Prot binding (% free)
Solubility = assay type: physicochemical; conditions: in dry DMSO at pH = 7.4
Protocol: as §3

GSK-3 [5] = experiment: Radioligand saturation binding assay with tritiated ligands in hippocampal membranes; parameters: species or system Sprague–Dawley rat; conditions: tritiated ligand, hippocampus of SD rat brains
Protocol: The pharmacology and physicochemical properties of compounds 13a–13e are depicted in Table . To evaluate binding affinities, saturation binding assays using tritiated ligands [^3H]13a, [^3H]13c, [^3H]13d, [^3H]13e (Scheme S1) were performed using the hippocampal tissue of Sprague–Dawley (SD) rat brains. As depicted in Table A, total binding (TB), nonspecific binding (NSB), and specific binding (SB) of the respective tritiated ligands were measured with increasing concentrations of the radioligands. The dissociation constant (Kd) and capacity (B max) of each radioligand were calculated to confirm their binding affinity.
For membrane preparation, hippocampal tissue from adult rats (Sprague–Dawley) was dissected out, weighed, and frozen in 0.32 M sucrose at −70 °C. On the experiment day, the tissue was thawed, homogenized in 50 mM Tris, 5 mM EDTA (pH 7.4) and then centrifuged at 48 000 xg for 15 min at +4 °C. The pellet was diluted in binding buffer (50 mM Tris, 4 mM MgCl2, 1 mM EDTA pH 7.4) to a final concentration of 2.5 mg w.w./mL. Saturation binding experiments were performed in duplicate, with each tube containing 1 mg w.w. in 0.5 mL binding buffer and 0.1 – 17 nM (11–12 concentrations) of radioligand. Nonspecific binding was measured by adding 10 μM AR-A014418. The assays were incubated for 2–3 h at room temperature and terminated by quick filtration using Whatman GF/B filters pretreated with 0.3% polyethylenimine on a Brandel cell harvester. Radioactivity was measured with a Packard Tri-Carb 2900TR liquid scintillation counter, and data were processed by nonlinear regression analyses using PRISM 4.03.

GSK-3β = experiment: In vitro autoradiography on rat brain tissue sections; assay type: binding; conditions: rat brain sections, baseline
Protocol: In the next step, we performed in vitro autoradiography studies on rat brain tissue sections to investigate the binding selectivity and distribution of compounds [^3H]13a–13e (Figure ). […] These findings support the potential of this compound series for further development as GSK-3β-targeted neuroimaging probes.
In vitro autoradiography was conducted on 10 μm thick cry-cut tissue sections of rat tissue that had been thaw-mounted onto microscope slides. The brain sections were incubated in 50 mM Tris-HCl buffer at room temperature and then incubated with [^3H]-ligand for 30 min. The sections were rinsed three times for 10 min each in Tris buffer at 1 °C, followed by a quick rinse in deionized water at 1 °C, and then air-dried at room temperature with a fan. The radiolabeled sections and Amersham plastic tritium standards were then exposed to phosphoimager plates (Fuji BAS-TR2040) overnight. Blocking studies were conducted using a 1000-fold excess of the cold reference compounds, and validated GSK-3β inhibitors AR-A014418 and SB-216763. […] This micromolar concentration is consistent with established methods for GSK-3 radioligand autoradiography blocking experiments.

human recombinant GSK3β = human recombinant GSK3β (Homo sapiens, UniProt P49841); experiment: GSK3β scintillation proximity assay (SPA), inhibition of kinase activity; assay type: biochemical
Chain of human recombinant GSK3β (P49841 whole entry): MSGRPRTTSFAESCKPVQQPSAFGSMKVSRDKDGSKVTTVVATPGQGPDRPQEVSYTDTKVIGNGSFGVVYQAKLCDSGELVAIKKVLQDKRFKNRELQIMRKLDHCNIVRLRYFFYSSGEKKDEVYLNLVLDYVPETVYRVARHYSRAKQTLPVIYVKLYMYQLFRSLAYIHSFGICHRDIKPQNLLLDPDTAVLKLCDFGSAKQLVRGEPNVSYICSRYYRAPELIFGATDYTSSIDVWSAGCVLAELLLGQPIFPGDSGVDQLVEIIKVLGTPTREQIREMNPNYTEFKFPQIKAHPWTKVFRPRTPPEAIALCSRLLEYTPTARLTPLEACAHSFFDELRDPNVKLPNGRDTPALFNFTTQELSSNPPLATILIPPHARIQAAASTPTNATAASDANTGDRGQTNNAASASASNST
Protocol: The inhibition of GSK3β activity is assessed using a scintillation proximity assay (SPA) in a 96-well microtiter plate format. The assay utilizes purified human recombinant GSK3β enzyme (∼1 nM active), [γ-^33P]-ATP (0.04 μCi), and a biotinylated peptide substrate (Biotin-[…](PO3H2)-PQL) at a final concentration of 2 μM. Reactions are carried out in an assay buffer containing MOPS, EDTA, β-mercaptoethanol, Brij 35, glycerol, and BSA, and preincubated for 10–15 min at room temperature. Inhibitor testing is conducted in duplicate using 10 different concentrations. The kinase reaction is initiated by adding ATP (1 μM final) in the presence of 50 mM Mg(Ac)2. After a 15 min incubation at room temperature, the reaction is terminated by adding a solution (25 μL) containing 5 mM EDTA, 50 μM ATP, 0.1% Triton X-100, and 10 mg/mL streptavidin-coated SPA beads, followed by the addition of distilled water (50 μL). After a 6-h incubation, bound radioactivity is measured using a MicroBeta Trilux liquid scintillation counter (1450 MicroBeta Trilux, Wallac). Data are analyzed using nonlinear regression with variable slope (GraphPad Prism or Excel Fit), and results are reported as Ki values calculated via the Cheng-Prusoff equation.

[6] = Pharmacokinetics: half-life and bioavailability; conditions: in vivo

**Q.** Which results are given for CC(=O)N1CCN(Cc2ccc(Nc3ncc(F)c(-c4cnc(C)n4C4CCOCC4)n3)cc2)CC1 [13e]?
**A.** P-gp substrate status (P-glycoprotein (P-gp); NHP PET): P-glycoprotein substrate; brain uptake after P-gp inhibition (P-glycoprotein (P-gp); NHP, Tariquidar 6 mg/kg): significantly increased the brain uptake; pIC50 (hERG channel): 4.69; P app A-B [1]: 12.7 × 10^–6 cm/s; efflux ratio ([1]; not told, Papp B–A/Papp A–B): 1.4; fraction unbound [2]: 0.12; brain uptake (PET) (GSK-3 [3]): relatively higher signals in the brain; hepatocyte CLint [4]: 12 µL/min/1e6 cells; fraction unbound (Protein binding (% free)): 0.111; solubility (Solubility): 362 µM (≈ 179 µg/mL); pKd (GSK-3 [5]): 8.53; regional binding in autoradiography (GSK-3β; by brain region): high binding in the cortex and hippocampus, moderate uptake in the striatum and cerebellum, and relatively low binding in the thalamus; radioactive accumulation / distribution in autoradiography (GSK-3β; tritiated ligand): highest and most regionally distinct uptake; pKi (human recombinant GSK3β; GSK-3β, calculated via the Cheng-Prusoff equation): 8.48; pIC50 (human recombinant GSK3β; SPA, 1 μM ATP): 8.35; bioavailability [6]: 10.1%; half-life ([6]; read-out: mean t 1/2 (converted)): 104 min
